Earlier results in US8409610B2, “Wound care device” (Coloplast A/S, priority 2003, dated 2013).

Details: reported values, given as examples

Row | minimum plasma concentration for obtaining systemic effect [µg/mL] | Compound
1 | 270 | CC(=O)Oc1ccccc1C(=O)O [Acetylsalicylic acid]
2 | 10 | CC(C)Cc1ccc(C(C)C(=O)O)cc1 (stereo not shown) [Ibuprofen]
3 | 3 | CC(C(=O)O)c1cccc(C(=O)c2ccccc2)c1 (stereo not shown) [Ketoprofen]
4 | 1 | CN1C(C(=O)Nc2ccccn2)=C(O)c2ccccc2S1(=O)=O [Piroxicam]
